{"source": "patent US20260325521A1", "about": "“TREATMENT OF IDIOPATHIC PULMONARY FIBROSIS WITH ENSIFENTRINE” (Verona Pharma Limited, priority 2022, published 2026)", "assay_type_in_all_cases": "in vivo", "key": {"[1]": {"test_system": "bleomycin-induced lung fibrosis", "assay": "Rodent model of bleomycin-induced lung fibrosis (Example 2)", "settings": "rodents, inhalation; dose and period not given; histological fibrotic area", "experimental": "The anti-fibrotic activity of ensifentrine is assessed using a rodent model of bleomycin-induced lung fibrosis.\nBleomycin is administered to anaesthetised rodents to induce lung fibrosis. Ensifentrine is then administered to the test rodents by inhalation for a period, and the rodents are subsequently killed. Lung samples are obtained for histological studies to determine fibrotic area."}, "IL-6": {"test_system": "IL-6", "assay": "Clinical study in COPD patients: change in blood IL-6 with inhaled ensifentrine compared with placebo", "settings": "inhaled by nebuliser, 3 mg BID, 24 weeks, FIG. 1", "experimental": "(§1) A clinical study was conducted to determine the efficacy of ensifentrine in treating COPD compared with placebo. Ensifentrine was administered by nebuliser at a dose of 3 mg twice daily (BID) for 24 weeks. The study was a multi-centre, randomized, double-blind, parallel-group, placebo-controlled trial with around 800 patients and 5:3 randomization.\n(§2) The study population included patients aged 40-80 years with moderate to severe COPD (FEV1 30%-70% p.n., FEV1/forced vital capacity (FVC) ratio <0.7, with mMRC ≥2). The randomization stratified (a) the use of stable background maintenance LAMA or LABA therapy use (approx. 50%. yes or no) and (b) cigarette smoking (current or former). Inhaled corticosteroid (ICS) maintenance therapy was permitted in up to 20% of patients under certain provisions.\n(§3) The effect of ensifentrine on the change in blood IL-6 and IL-8 was measured.\n(§4) The investigational product and placebo were provided in 2.5 mL unit dose format in an ampule and administered via a nebuliser."}, "[2]": {"test_system": "bleomycin-induced pulmonary fibrosis", "assay": "Efficacy in treatment of bleomycin-induced pulmonary fibrosis in rats (overall)", "settings": "inhalation, 3 mg/kg and 10 mg/kg", "experimental": "(§5) An in vivo study was conducted to determine the efficacy of ensifentrine in the treatment of bleomycin-induced pulmonary fibrosis in rats in comparison to a control. Rats were administered bleomycin to induce pulmonary fibrosis. After a week, they then received a daily inhaled dosage of ensifentrine or a control over a period of two weeks. At the end of the two weeks, the rats were sacrificed and their airways were analysed for Bronchoalveolar lavage (BAL) differential cell counts and TGF-β concentration.\n(§6) At day 0, the rats were subjected to an intratracheal challenge of either 0.9% w/v saline or bleomycin, the latter used to induce pulmonary fibrosis.\n(§7) Starting on day 7, two groups of 12 rats from the bleomycin challenge group were administered an inhaled dose of ensifentrine at either 3 mg/kg (Experiment 1) or 10 mg/kg (Experiment 2) on a daily basis for two weeks, terminating on day 21. The ensifentrine was administered as a suspension in the vehicle suspension article.\nTwo control experiments were also conducted. Control 1 subjected 12 rats from the saline challenge group to daily administration of the vehicle suspension article via inhalation for the full 21 days. Control 2 subjected 12 rats from the bleomycin challenge group to daily administration of the vehicle suspension article via inhalation for the full 21 days. […]"}, "[3]": {"test_system": "inflammatory cell and macrophage infiltration into the rat airways", "assay": "Bleomycin-induced pulmonary fibrosis in rats: BAL differential cell counts", "experimental": "as §5\n(§8) The BAL differential cell count provided a total inflammatory cell count so that changes in inflammation following treatment could be observed. TGF-β is a key cytokine in the development of tissue fibrosis. Macrophages and other immune cells produce TGF-β, which induces the differentiation of fibroblasts to myofibroblasts and increases TGF-β expression. Overexpression of active TGF-β1 in the lungs of rodents causes severe and progressive tissue fibrosis, including fibroblastic foci and honeycomb formation.\nas §6, §7\n(§9) Two control experiments were also conducted. Control 1 subjected 12 rats from the saline challenge group to daily administration of the vehicle suspension article via inhalation for the full 21 days. Control 2 subjected 12 rats from the bleomycin challenge group to daily administration of the vehicle suspension article via inhalation for the full 21 days.\n(§10) At the end of the 21-day period, the rats were sacrificed and the BAL differential cell counts and the TGF-β concentration data were collected."}, "IL-8": {"test_system": "IL-8", "assay": "Clinical study in COPD patients: change in blood IL-8 with inhaled ensifentrine compared with placebo", "settings": "inhaled by nebuliser, 3 mg BID, 24 weeks, FIG. 1", "experimental": "as §1, §2, §3, §4"}, "[4]": {"assay": "Diarrhoea as side effect of inhaled ensifentrine in patients"}, "TGF-β": {"test_system": "TGF-β", "assay": "Bleomycin-induced pulmonary fibrosis in rats: TGF-β concentration", "experimental": "as §5, §8, §6, §7, §9, §10\nAn in vivo study was conducted to compare the efficacy of ensifentrine and nintedanib in the treatment of bleomycin-induced pulmonary fibrosis in rats. Following the same initial experimental procedure as in Example 3, 12 rats from the bleomycin challenge group were administered a daily dose of 100 mg/kg of nintedanib via an oral gavage for two weeks, starting from day 7 (Experiment 3). A new control experiment was also conducted (Control 3), administering the vehicle suspension article orally in an aqueous solution.\nAt day 21, the rats were sacrificed and their airways were analysed to calculate the TGF-β concentration. The results were compared to those of Experiments 1 and 2 (Example 3)."}, "[5]": {"settings": "inhaled 3 mg/kg/day QD from day 7, day 21, vs bleomycin Control 2 (Experiment 1)"}, "[6]": {"settings": "inhaled 10 mg/kg/day QD from day 7, day 21, vs bleomycin Control 2 (Experiment 2)"}}, "note": "“Also recorded” adds a separate entry of the source."}
{"smiles": "COc1cc2c(cc1OC)-c1c/c(=N\\c3c(C)cc(C)cc3C)n(CCNC(N)=O)c(=O)n1CC2", "note": "[ensifentrine, N-(2-{(2E)-9,10-dimethoxy-4-oxo-2-[(2,4,6-trimethylphenyl)imino]-6,7-dihydro-2H-pyrimido[6,1-a]isoquinolin-3(4H)-yl}ethyl)urea]", "values": [{"measurement": "anti-fibrotic effect in bleomycin-induced lung fibrosis", "setting": "[1]", "value": "anti-fibrotic effect"}, {"measurement": "blood IL-6", "setting": "IL-6", "value": "reduce blood IL-6; also recorded: reduction in blood IL-6"}, {"measurement": "efficacy in the treatment of bleomycin-induced pulmonary fibrosis", "setting": "[2]", "value": "effective"}, {"measurement": "BAL differential cell count", "setting": "[3]; inhaled 3 mg/kg QD from day 7, day 21 (Experiment 1)", "value": "reduction in BAL differential cell count"}, {"measurement": "macrophage infiltration into the airways (BAL differential cell counts)", "setting": "[3]; [5]", "value": "reduction in total inflammatory cell and macrophage infiltration"}, {"measurement": "total inflammatory cell infiltration into the airways (BAL differential cell counts)", "setting": "[3]; [5]", "value": "reduction in total inflammatory cell"}, {"measurement": "BAL differential cell count", "setting": "[3]; inhaled 10 mg/kg QD from day 7, day 21 (Experiment 2)", "value": "reduction in BAL differential cell count"}, {"measurement": "macrophage infiltration into the airways (BAL differential cell counts)", "setting": "[3]; [6]", "value": "reduction in total inflammatory cell and macrophage infiltration"}, {"measurement": "total inflammatory cell infiltration into the airways (BAL differential cell counts)", "setting": "[3]; [6]", "value": "reduction in total inflammatory cell"}, {"measurement": "blood IL-8", "setting": "IL-8", "value": "reduce blood IL-6 and IL-8; also recorded: reduction in blood IL-6 and IL-8"}, {"measurement": "diarrhoea (side effect)", "setting": "[4]", "value": "avoid side effects such as diarrhoea; also recorded: not to be associated with diarrhoea"}, {"measurement": "TGF-β concentration in the rat lungs compared with nintedanib", "setting": "TGF-β; day 21, inhaled ensifentrine 3 mg/kg/day (Experiment 1) vs oral nintedanib 100 mg/kg/day (Experiment 3)", "value": "lower than the TGF-β concentration following treatment with nintedanib; also recorded: greater reduction in TGF-β concentration than orally administered nintedanib"}, {"measurement": "TGF-β concentration in the rat lungs compared with nintedanib", "setting": "TGF-β; day 21, inhaled ensifentrine 10 mg/kg/day (Experiment 2) vs oral nintedanib 100 mg/kg/day (Experiment 3)", "value": "lower than the TGF-β concentration following treatment with nintedanib; also recorded: greater reduction in TGF-β concentration than orally administered nintedanib"}, {"measurement": "TGF-β concentration", "setting": "TGF-β; [5]", "value": "lower; also recorded: reduction in BAL differential cell count and TGF-β concentration"}, {"measurement": "TGF-β concentration", "setting": "TGF-β; [6]", "value": "lower; also recorded: reduction in BAL differential cell count and TGF-β concentration"}]}
